Experimental data taken from patent US10463710B2, “Short synthetic peptide for the treatment and/or prophylaxis of autoimmune and inflammatory disorders” (MacKay Memorial Hospital, priority 2015, dated 2019).

Test system: HOCl-induced skin fibrosis
Test: Mouse model of HOCl-induced systemic sclerosis (skin fibrosis)
Type: in vivo, BALB/c mice
Method: Induction of SSc have been successfully established by subcutaneously injection with prooxidative agents (e.g., hypochlorous acid, HOCl) in BALB/c mice every day for 6 weeks (Servettaz A et al., J Immuno. 2009; 182: 5855).
To produce HOCl, 166 μl of NaClO solution (2.6% as active chlorine) was added to 11.1 ml of KH2PO4 solution (100 mM; pH 7.2). The concentration of HOCl was determined by spectrophotometry at 292 nm (molar absorption coefficient 350 M^−1 cm^−1). Female BALB/c mice (6 weeks old) were randomly distributed into experimental and control groups (n=6 per group). A total of 100 μl of HOCl solution mixed with 7-mer vehicle or 7-mer (final concentration 0.2 mM) was injected subcutaneously into the shaved back of the mice, using a 27-gauge needle, every day for 6 wks. Subcutaneous injection of phosphate-buffered saline (PBS) was served as normal control. Mice were euthanized and their skins were harvested, fixed overnight in 4% paraformaldehyde and embedded in paraffin. […]
Approximately 20% skin homogenate was used to determine the levels of soluble collagen. The collagen levels were quantified using a Sircol™ soluble collagen assay (Biocolor Ltd., Newtownabbey) according to the manufacturer's protocols. […] Relative absorbance was measured at 540 nm. […]

**Q.** Which results are given for `CC(=O)N[C@@H](CC(=O)O)C(=O)N[C@@H](CC(C)C)C(=O)N[C@@H](Cc1ccc(O)cc1)C(=O)N[C@@H](CCCNC(=N)N)C(=O)N[C@H](C(=O)N[C@@H](CCCNC(=N)N)C(=O)N[C@@H](CO)C(N)=O)C(C)C` [7-mer, NH2-Asp-Leu-Tyr-Arg-Val-Arg-Ser-COOH]?
**A.** level of dermal collagen (Masson's trichrome) (7-mer 0.2 mM s.c. with HOCl daily for 6 wks, vs HOCl/vehicle, FIG. 3A): significant decrease; collagen content of skin (7-mer treated SSc mice, HOCl-treated SSc mice 169.9±7.75, FIG. 3B): 99.0±5.43 μg collagen/mg skin
